These results are taken from patent EP4415826B1, “SYNTHESIS AND IN VITRO ANTITUMOR ACTIVITIES OF NOVEL THIOAMIDE SUBSTITUTED PIPERAZINYL-1,2,4-TRIAZINES” (Istanbul Medipol Universitesi, priority 2021, dated 2023).

In general, IC50 refers to the concentration at which inhibition is half-maximal. Lower therefore signals higher potency. The term inhibition denotes the drop in the measured response relative to a control, in per cent. A low value points to little suppression.

What all share (assay type): cell-based
One assay deals with SH-SY5Y neuroblastoma. Put plainly: MTT cell viability assay, SH-SY5Y. The note with it: 24 hours incubation; for inhibition at 50 µM: Homo sapiens, SH-SY5Y. As for the experimental part: (§1) In the study, […] cell lines were purchased and used: SH-SY5Y(CRL-2266, ATCC, USA), C6 Glioma(CCL-107, ATCC, USA) and HEK293(CRL-1573, ATCC, USA). All cells were cultured and propagated in Dulbecco's Modified Eagle's Medium - high glucose (Cat. No:41966029, Gibco, USA), containing 10% (v/v) Foetal Bovine Serum (Cat. No:10500064, Gibco, USA), […] (10,000 U/mL)(Cat. No:15140122, Gibco, USA).
(§2) In order to assess the viability of the cells MTT […] assay was applied. Initially cells were seeded in the 96-well plates (VWR- 10062900) at a density of 10,000 cells/well and incubated in a cell culture incubator at 37 °C with 5% CO2 for 24 hours. Then, the cells were incubated with the tested compounds at the concentration of 100µM, 50µM, 25µM and 12.5µM for 24 hours. After completion of incubation in molecules, all media were removed and 50 µl MTT (Gold Biotechnology T-030) solution was added to each well and the plates were incubated for an additional 3 hours, followed by addition of 150 µl of MTT solubilization mixture containing 0.1% Triton X-100 (Cat. No:A4025, Biomatik, USA ) and 4mM HCI (Cat. No:07102, Sigma-Aldrich, Germany) in isopropanol(Cat. No:278475, Sigma-Aldrich, Germany). The solution was slowly mixed for 15 minutes to dissolve the MTT formazan crystals and the absorbance of each well was measured with HIDEX Sense Microplate Reader(Cat. No:425-301, HIDEX, Finland) at the wavelength of 570 nm.
Background: Tetrazolium assays rely on reduction of a dye to a coloured formazan, in cell work by metabolically active cells.

The test system of another assay is C6 glioma. As to the kind of experiment: MTT cell viability assay, C6. Conditions: 24 hours incubation; for inhibition at 50 µM: C6 glioma. The protocol: as §1, §2
In the next assay the test system is HEK293. Put plainly: MTT cell viability assay, HEK293 healthy cell line. Conditions: for inhibition at 50 µM: Homo sapiens, HEK293, 24 hours incubation. As for the experimental part:
as §1, §2

Another assay relates to U87MG glioblastoma. As to the kind of experiment: MTT cell viability assay, U87MG. Conditions: 24 hours incubation. The protocol: as §2
The next assay relates to MCF7 breast tumor. As to the kind of experiment: MTT cell viability assay, MCF7. The protocol: as §2
In a further assay the test system is NIH-3T3. Put plainly: MTT cell viability assay, NIH-3T3 healthy cell line. As for the experimental part: as §2
Setting [1] is: Homo sapiens, MCF7, 24 hours incubation.
Setting [2] is: Mus musculus, NIH3T3, 24 hours incubation.

Structures are written as SMILES.

On to `N.N.[Cl][Pt][Cl]` [Cisplatin, reference compound], for which the “% inhibition (50 uM) SH-SY5Y” value with SH-SY5Y neuroblastoma is on record as 97.80%. In addition, the “% inhibition (50 uM) C6” value in the assay on C6 glioma amounted to 79.02%. Moreover, in the assay with HEK293 (24 hours incubation), the “% inhibition (50 uM) HEK293” value is given as 52.60%. The IC50 amounted to 10 µM in the assay on U87MG glioblastoma, 3.55 µM in the assay with MCF7 breast tumor (24 hours incubation) and 2.05 µM in the assay with NIH-3T3 (24 hours incubation).
Consider `CCNC(=S)N1CCN(c2nnc(-c3ccccc3)c(-c3ccccc3)n2)CC1` [Compound 1a, 4-(5,6-diphenyl-1,2,4-triazin-3-yl)-N-ethylpiperazine-1-carbothioamide], for which the inhibition at 50 µM with SH-SY5Y neuroblastoma came to 47.3%; in the assay with C6 glioma, 37.1%; in the assay with HEK293, 97.3%. In addition, the IC50 is 29.7 µM in the assay with U87MG glioblastoma (Homo sapiens, U-87 MG); 62.8 µM in the assay on MCF7 breast tumor (setting [1]); 33.2 µM in the assay on NIH-3T3 (setting [2]).
Turning to `S=C(Nc1ccccc1)N1CCN(c2nnc(-c3ccccc3)c(-c3ccccc3)n2)CC1` [Compound 1b, 4-(5,6-diphenyl-1,2,4-triazin-3-yl)-N-phenylpiperazine-1-carbothioamide], the inhibition at 50 µM in the assay on SH-SY5Y neuroblastoma came out at 84.9%; in the assay with C6 glioma, 86.1%; in the assay with HEK293, 96.1%. Also, the IC50 was 46 µM in the assay on U87MG glioblastoma (Homo sapiens, U-87 MG) and 42.6 µM in the assay on NIH-3T3 (setting [2]).
Regarding `Cc1ccc(NC(=S)N2CCN(c3nnc(-c4ccccc4)c(-c4ccccc4)n3)CC2)cc1` [Compound 1c, 4-(5,6-diphenyl-1,2,4-triazin-3-yl)-N-(p-tolyl)piperazine-1-carbothioamide], the inhibition at 50 µM in the assay with SH-SY5Y neuroblastoma came to 61.6%; in the assay on C6 glioma it was 46.8%; in the assay on HEK293, 92.6%. The compound further yielded an IC50 in the assay with MCF7 breast tumor (setting [1]) of 73.1 µM.
Regarding `COc1ccc(NC(=S)N2CCN(c3nnc(-c4ccccc4)c(-c4ccccc4)n3)CC2)cc1` [Compound 1d, 4-(5,6-diphenyl-1,2,4-triazin-3-yl)-N-(4-methoxyphenyl)piperazine-1-carbothioamide], the inhibition at 50 µM was found to be 68% in the assay with SH-SY5Y neuroblastoma, 93.3% in the assay with C6 glioma and 98% in the assay on HEK293. The IC50 in the assay with U87MG glioblastoma (Homo sapiens, U-87 MG) was 55 µM; with MCF7 breast tumor (setting [1]) it was 61.6 µM.
As to `O=[N+]([O-])c1ccc(NC(=S)N2CCN(c3nnc(-c4ccccc4)c(-c4ccccc4)n3)CC2)cc1` [Compound 1e, 4-(5,6-diphenyl-1,2,4-triazin-3-yl)-N-(4-nitrophenyl)piperazine-1-carbothioamide], the figures for the inhibition at 50 µM with SH-SY5Y neuroblastoma, in the assay with C6 glioma and with HEK293 were 21.9%, 94.4% and 95.9%, respectively.
In the case of `S=C(Nc1ccc(Cl)cc1)N1CCN(c2nnc(-c3ccccc3)c(-c3ccccc3)n2)CC1` [Compound 1f, N-(4-chlorophenyl)-4-(5,6-diphenyl-1,2,4-triazin-3-yl)piperazine-1-carbothioamide], the inhibition at 50 µM worked out at 94.1% with SH-SY5Y neuroblastoma, 66.6% with C6 glioma and 73.6% in the assay on HEK293. The IC50 was determined as 59.1 µM with U87MG glioblastoma (Homo sapiens, U-87 MG) and 65.3 µM in the assay with NIH-3T3 (setting [2]).
As to `COc1ccc(-c2nnc(N3CCN(C(=S)Nc4ccccc4)CC3)nc2-c2ccc(OC)cc2)cc1` [Compound 1g, 4-(5,6-bis(4-methoxyphenyl)-1,2,4-triazin-3-yl)-N-phenylpiperazine-1-carbothioamide], the inhibition at 50 µM in the assay with SH-SY5Y neuroblastoma was 46.2%; in the assay on C6 glioma it was 63.7%; in the assay with HEK293, 97.4%. In addition, the IC50 with U87MG glioblastoma (Homo sapiens, U-87 MG) is 68.1 µM; with MCF7 breast tumor (setting [1]), 91.2 µM; in the assay with NIH-3T3 (setting [2]), 76 µM.
With `S=C(Nc1ccccc1)N1CCN(c2nnc(-c3ccc(Cl)cc3)c(-c3ccc(Cl)cc3)n2)CC1` [Compound 1h, 4-(5,6-bis(4-chlorophenyl)-1,2,4-triazin-3-yl)-N-phenylpiperazine-1-carbothioamide], the inhibition at 50 µM with SH-SY5Y neuroblastoma stood at 87.9%; with C6 glioma, 77.9%; in the assay on HEK293 it was 87.4%. Moreover, the IC50 in the assay with MCF7 breast tumor (setting [1]) worked out at 77.2 µM; in the assay with NIH-3T3 (setting [2]), 40.2 µM.
Turning to `S=C(Nc1ccc(Cl)cc1)N1CCN(c2nnc(-c3ccc(Cl)cc3)c(-c3ccc(Cl)cc3)n2)CC1` [Compound 1i, 4-(5,6-bis(4-chlorophenyl)-1,2,4-triazin-3-yl)-N-(4-chlorophenyl)piperazine-1-carbothioamide], the inhibition at 50 µM in the assay on SH-SY5Y neuroblastoma came out at 83.6%; in the assay with C6 glioma it was 78.3%; in the assay on HEK293 it was 68.4%. For the same compound, the IC50 with U87MG glioblastoma (Homo sapiens, U-87 MG) came to 98.6 µM; with NIH-3T3 (setting [2]), 81.5 µM.
